Reference: patent US9556165B2 (priority 2012, dated 2017)
Values after ≈ are worked out from the molar mass of the structure shown. Read-outs that look alike come from different tables or passages of the source.

Experiments:
Assay type in all cases: cell-based
S. pneumoniae 113 = experiment: MIC determination, broth microdilution (CLSI); conditions: broth microdilution; for MIC: Streptococcus pneumoniae, 113, strain 13, read-out: MIC strain 13 (S. pneumoniae 113)
M. morganii 126/3048 = experiment: MIC determination, broth microdilution (CLSI); conditions: for MIC: Morganella morganii, 126/3048, strain 5
E. coli J62 = experiment: MIC determination, broth microdilution (CLSI); conditions: broth microdilution; for MIC: Escherichia coli, J62, strain 17, read-out: MIC strain 17 (E. coli J62)
H. influenzae ATCC 49247 = experiment: MIC determination, broth microdilution (CLSI); conditions: broth microdilution; for MIC: Haemophilus influenzae, ATCC49247, strain 12, read-out: MIC strain 12 (H. influenzae ATCC 49247)
E. cloacae 34654 = experiment: MIC determination, broth microdilution (CLSI); conditions: for MIC: Enterobacter cloacae, 34654, strain 3
E. coli J62-TEM-3 = experiment: MIC determination, broth microdilution (CLSI); conditions: broth microdilution; for MIC: Escherichia coli, J62TEM3, read-out: MIC strain 18 (E. coli J62-TEM-3), strain 18
S. aureus 133 = experiment: MIC determination, broth microdilution (CLSI)
E. coli ATCC25922 = experiment: MIC determination, broth microdilution (CLSI); conditions: for MIC: Escherichia coli, ATCC25922, strain 1
B. fragilis 6688 = experiment: MIC determination, broth microdilution (CLSI); conditions: broth microdilution; for MIC: Bacteroides fragilis, 6688, strain 15, read-out: MIC strain 15 (B. fragilis 6688)
Bacteria = experiment: MIC determination in combination with β-lactamase inhibitors (constant 4 μg/mL)
C. perfringens DSM756 = experiment: microbe, parasite or virus in culture; conditions: broth microdilution; for MIC: Clostridium perfringens, DSM756, read-out: MIC strain 16 (C. perfringens DSM756), strain 16
S. maltophilia ICB7569 = experiment: MIC determination, broth microdilution (CLSI); conditions: for MIC: Stenotrophomonas maltophilia, ICB7569, strain 10
A. baumannii ATCC15308 = experiment: MIC determination, broth microdilution (CLSI)
C. freundii K21/3034 = experiment: MIC determination, broth microdilution (CLSI); conditions: for MIC: Citrobacter freundii, K21/3034, strain 4
K. pneumoniae 60 = experiment: MIC determination, broth microdilution (CLSI); conditions: for MIC: Klebsiella pneumoniae, 60, strain 2
P. aeruginosa PAO1 = experiment: MIC determination, broth microdilution (CLSI); conditions: Pseudomonas aeruginosa, PAO1, strain 6
[1] = system: P. aeruginosa 2297 (AmpC wt); experiment: MIC determination, broth microdilution (CLSI); conditions: Pseudomonas aeruginosa, strain 7
[2] = system: P. aeruginosa 2297-con (AmpC derepressed); experiment: MIC determination, broth microdilution (CLSI); conditions: Pseudomonas aeruginosa, read-out: strain 8 MIC, strain 8
[3] = Staphylococcus aureus, 133, strain 11, read-out: strain 11 MIC

Structure (SMILES): CC1(C)[C@H](NC(=O)/C(=N\OC(CCO)COc2ccc(C(=N)N)cc2)c2csc(N)n2)C(=O)N1OS(=O)(=O)O (single isomer, unassigned) [Example 81A]
- MIC (S. pneumoniae 113): 0.25 µg/mL (≈ 0.427 µM)
- MIC (M. morganii 126/3048): 8 µg/mL (≈ 13.7 µM)
- MIC (E. coli J62): 8 µg/mL (≈ 13.7 µM)
- MIC (H. influenzae ATCC 49247): 2 µg/mL (≈ 3.42 µM)
- strain 3 MIC (E. cloacae 34654): 16 µg/mL
- MIC strain 18 (E. coli J62-TEM-3) (E. coli J62-TEM-3): 32 µg/mL (≈ 54.6 µM)
- MIC (S. aureus 133; Staphylococcus aureus, 133, strain 14, broth microdilution, read-out: MIC strain 14 (S. aureus 133)): 32 µg/mL (≈ 54.6 µM)
- MIC (E. coli ATCC25922): 4 µg/mL (≈ 6.83 µM)
- MIC (B. fragilis 6688): 16 µg/mL (≈ 27.3 µM)
- MIC strain 19 (E. coli J62-TEM-3 + 4 μg/mL clavulanic acid) (Bacteria): 8 µg/mL
- MIC strain 20 (E. coli J62-TEM-3 + 4 μg/mL sulbactam) (Bacteria): 8 µg/mL
- MIC strain 21 (E. coli J62-TEM-3 + 4 μg/mL tazobactam) (Bacteria): 8 µg/mL
- MIC (C. perfringens DSM756): 8 µg/mL (≈ 13.7 µM)
- MIC (S. maltophilia ICB7569): 16 µg/mL (≈ 27.3 µM)
- MIC (A. baumannii ATCC15308; Acinetobacter baumannii, ATCC15308, strain 9): 8 µg/mL (≈ 13.7 µM)
- MIC (C. freundii K21/3034): 4 µg/mL (≈ 6.83 µM)
- MIC (K. pneumoniae 60): 8 µg/mL (≈ 13.7 µM)

Structure (SMILES): CC1(C)[C@H](NC(=O)/C(=N\OC(CCO)COc2ccc(C(=N)N)cc2)c2csc(N)n2)C(=O)N1OS(=O)(=O)O (single isomer, unassigned) [Example 81B]
- MIC strain 13 (S. pneumoniae 113) (S. pneumoniae 113; strain 13): 0.125 µg/mL (≈ 0.213 µM)
- strain 5 MIC (M. morganii 126/3048; strain 5): 4 µg/mL
- MIC strain 17 (E. coli J62) (E. coli J62; strain 17): 4 µg/mL (≈ 6.83 µM)
- MIC strain 12 (H. influenzae ATCC 49247) (H. influenzae ATCC 49247; strain 12): 2 µg/mL (≈ 3.42 µM)
- strain 3 MIC (E. cloacae 34654): 4 µg/mL
- MIC strain 18 (E. coli J62-TEM-3) (E. coli J62-TEM-3): 4 µg/mL (≈ 6.83 µM)
- MIC strain 14 (S. aureus 133) (S. aureus 133; strain 14, broth microdilution): 32 µg/mL (≈ 54.6 µM)
- strain 1 MIC (E. coli ATCC25922): 2 µg/mL
- MIC strain 15 (B. fragilis 6688) (B. fragilis 6688; strain 15): 16 µg/mL (≈ 27.3 µM)
- MIC strain 19 (E. coli J62-TEM-3 + 4 μg/mL clavulanic acid) (Bacteria): 4 µg/mL
- MIC strain 20 (E. coli J62-TEM-3 + 4 μg/mL sulbactam) (Bacteria): 4 µg/mL
- MIC strain 21 (E. coli J62-TEM-3 + 4 μg/mL tazobactam) (Bacteria): 4 µg/mL
- MIC strain 16 (C. perfringens DSM756) (C. perfringens DSM756; strain 16): 4 µg/mL (≈ 6.83 µM)
- strain 10 MIC (S. maltophilia ICB7569; strain 10): 16 µg/mL
- strain 9 MIC (A. baumannii ATCC15308; strain 9): 8 µg/mL
- strain 4 MIC (C. freundii K21/3034; strain 4): 2 µg/mL
- strain 2 MIC (K. pneumoniae 60; strain 2): 4 µg/mL

Structure (SMILES): CC1(C)[C@H](NC(=O)/C(=N\OCCOc2ccc(C(=N)N)cc2)c2csc(N)n2)C(=O)N1OCS(=O)(=O)O [Example 90]
- MIC (S. pneumoniae 113): 0.5 µg/mL (≈ 0.9 µM)
- MIC (M. morganii 126/3048): 0.5 µg/mL (≈ 0.9 µM)
- MIC (E. coli J62): 1 µg/mL (≈ 1.8 µM)
- MIC (H. influenzae ATCC 49247): 0.5 µg/mL (≈ 0.9 µM)
- MIC (E. cloacae 34654): 1 µg/mL (≈ 1.8 µM)
- MIC (E. coli J62-TEM-3): 0.5 µg/mL (≈ 0.9 µM)
- MIC (S. aureus 133; [3]): 0.5 µg/mL (≈ 0.9 µM)
- MIC (E. coli ATCC25922): 0.5 µg/mL (≈ 0.9 µM)
- MIC (B. fragilis 6688): 4 µg/mL (≈ 7.2 µM)
- MIC (P. aeruginosa PAO1): 32 µg/mL (≈ 57.6 µM)
- MIC strain 19 (E. coli J62-TEM-3 + 4 μg/mL clavulanic acid) (Bacteria): 0.5 µg/mL
- MIC strain 20 (E. coli J62-TEM-3 + 4 μg/mL sulbactam) (Bacteria): 0.5 µg/mL
- MIC strain 21 (E. coli J62-TEM-3 + 4 μg/mL tazobactam) (Bacteria): 1 µg/mL
- MIC (C. perfringens DSM756): 16 µg/mL (≈ 28.8 µM)
- MIC (S. maltophilia ICB7569): 4 µg/mL (≈ 7.2 µM)
- MIC [1]: 32 µg/mL (≈ 57.6 µM)
- MIC (C. freundii K21/3034): 0.25 µg/mL (≈ 0.45 µM)
- MIC [2]: 32 µg/mL (≈ 57.6 µM)

Structure (SMILES): CC1(C)[C@H](NC(=O)/C(=N\O[C@@H](COc2ccc(C(=N)NCc3ncc[nH]3)cc2)C(=O)O)c2csc(N)n2)C(=O)N1OS(=O)(=O)O [Example 104, (2S)-2-({[(1Z)-1-(2-Amino-1,3-thiazol-4-yl)-2-{[(3S)-2,2-dimethyl-4-oxo-1-(sulfooxy)azetidin-3-yl]amino}-2-oxoethylidene]amino}oxy)-3-{4-[N-(1H-imidazol-2-ylmeth-yl)carbamimidoyl]phenoxy}propanoic acid]
- MIC (S. pneumoniae 113): 1 µg/mL (≈ 1.5 µM)
- MIC (M. morganii 126/3048): 0.5 µg/mL (≈ 0.751 µM)
- MIC (E. coli J62): 1 µg/mL (≈ 1.5 µM)
- MIC (H. influenzae ATCC 49247): ≤ 0.063 µg/mL
- MIC (E. cloacae 34654): 1 µg/mL (≈ 1.5 µM)
- MIC (E. coli J62-TEM-3): 32 µg/mL (≈ 48.1 µM)
- MIC (S. aureus 133; [3]): ≤ 0.063 µg/mL
- strain 1 MIC (E. coli ATCC25922): 1 µg/mL
- MIC (P. aeruginosa PAO1): 16 µg/mL (≈ 24 µM)
- MIC strain 19 (E. coli J62-TEM-3 + 4 μg/mL clavulanic acid) (Bacteria): 1 µg/mL
- MIC strain 20 (E. coli J62-TEM-3 + 4 μg/mL sulbactam) (Bacteria): 1 µg/mL
- MIC strain 21 (E. coli J62-TEM-3 + 4 μg/mL tazobactam) (Bacteria): 1 µg/mL
- MIC (C. perfringens DSM756): 8 µg/mL (≈ 12 µM)
- MIC (S. maltophilia ICB7569): 16 µg/mL (≈ 24 µM)
- MIC (C. freundii K21/3034): 1 µg/mL (≈ 1.5 µM)
- MIC (K. pneumoniae 60): 1 µg/mL (≈ 1.5 µM)
